Measured values: patent US8410150B2, “Inhibitors of carnitine palmitoyltransferase and treating cancer” (University Health Network, priority 2007, dated 2013)
Structures can show the parent of a compound that is named as a salt.

biological target: T1, human CPT1A (Homo sapiens, UniProt P50416); test: Human CPT1A LC/MS assay; assay type: biochemical; conditions: human CPT1A LC/MS assay, dose response format
T1 construct: made in house; host or cells: Saccharomyces cerevisiae (pESC-trp) or cultured mammalian cells (pCDNA3.1); mitochondrial extract
T1 sequence (P50416 1-773): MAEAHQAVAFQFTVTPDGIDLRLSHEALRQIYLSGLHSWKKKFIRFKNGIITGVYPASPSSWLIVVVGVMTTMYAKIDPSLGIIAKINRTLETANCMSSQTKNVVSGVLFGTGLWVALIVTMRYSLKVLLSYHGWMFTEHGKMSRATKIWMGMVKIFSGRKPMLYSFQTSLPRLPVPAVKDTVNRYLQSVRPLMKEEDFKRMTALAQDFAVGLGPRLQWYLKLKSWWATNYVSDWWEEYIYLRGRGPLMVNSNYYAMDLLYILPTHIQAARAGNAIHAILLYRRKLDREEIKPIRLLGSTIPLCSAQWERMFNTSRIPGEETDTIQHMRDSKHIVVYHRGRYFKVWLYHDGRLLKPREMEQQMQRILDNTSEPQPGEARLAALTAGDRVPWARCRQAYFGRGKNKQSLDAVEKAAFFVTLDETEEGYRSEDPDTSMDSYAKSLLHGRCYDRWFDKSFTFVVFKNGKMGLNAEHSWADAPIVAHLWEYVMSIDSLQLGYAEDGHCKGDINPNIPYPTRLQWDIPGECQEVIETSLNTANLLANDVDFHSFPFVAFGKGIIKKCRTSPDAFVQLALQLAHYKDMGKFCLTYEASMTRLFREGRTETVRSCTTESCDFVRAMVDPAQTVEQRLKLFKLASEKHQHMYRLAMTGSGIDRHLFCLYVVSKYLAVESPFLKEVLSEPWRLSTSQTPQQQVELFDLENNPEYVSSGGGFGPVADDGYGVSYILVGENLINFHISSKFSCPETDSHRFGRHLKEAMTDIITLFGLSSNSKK
From the text: Nucleotide sequences encoding human CPT1 enzymes were individually cloned into the yeast expression vector pESC-trp at the Cla1 (5′ terminus) and Pac1 (3′ terminus) restriction sites by PCR amplification of the open reading frame using oligonucleotide primers designed to encode the wild-type CPT1 protein sequence. Standard molecular biology techniques were used to transform and express the CPT1 proteins in the yeast Saccharomyces cerevisiae. The yeast cells were lysed by enzymatic degradation of the cell wall by Zymolase, and the mitochondria were isolated by standard biochemical techniques. The integrity of the isolated mitochondria was monitored by determining the activity of succinate dehydrogenase in the mitochondrial preparations. The mitochondrial extracts were stored at −80° C. in buffer containing 10 mM HEPES pH 7.4 and 250 mM sucrose.
Human CPT1 (A, B, C) genes were additionally cloned into the pCDNA3.1 vector individually for expression in cultured mammalian cells. Cells expressing the exogenous CPT1A were identified and grown under standard conditions. Mammalian cells were harvested, and mitochondrial extracts prepared using standard biochemical methods. The mitochondrial extracts were stored at −80° C. in buffer containing 10 mM HEPES pH 7.4 and 250 mM sucrose.
Assays were performed in 96-well plate format. Each 100 μL reaction contained 40 mM KCl, 50 mM TrisHCl pH 7.5, and 250 mM mannitol (Assay Buffer), and 1.6 μg protein of an extract, 20 μM palmitoyl-CoA, 50 μM L-carnitine, and 10 ug/mL BSA. Reactions were incubated at room temperature and stopped after 10 minutes by extraction with 200 μL of water saturated n-butanol containing myristoyl carnitine (500 nM) as an internal standard. The samples were thoroughly mixed, and the phases separated by centrifugation. Samples were prepared for analysis with a 10 fold dilution of the n-butanol phase containing the reaction product palmitoyl carnitine into a 50:50 (acetonitrile:water) solvent for analysis. […] of prepared sample was separated on a Phenomenex Jupiter 5μ C4 reverse-phase column using an Agilent 1100 HPLC with a gradient from 50% acetonitrile (0.5% acetic acid) to 100% acetonitrile and quantified by detection with a Bruker Esquire 3000plus mass spectrometer. The abundance of the palmitoyl carnitine product was determined relative to the internal standard and the actual quantity of palmitoyl carnitine can be determined from a standard curve prepared using the n-butanol solution containing the internal standard.
Compounds were evaluated in two formats, a screening format, and a dose response format. The screening format was performed by adding 25 μL compound in 20% DMSO and Assay Buffer to 25 μL of extract containing […] and Assay Buffer, followed by a 10 minute incubation at room temperature. 50 μL of 40 μM palmitoyl-CoA in Assay Buffer was added to the reaction mixture, mixed and incubated for 10 minutes at room temperature. A negative control for activity was also performed where the carnitine was omitted from the reaction. A positive control for activity was also performed by omitting compound from the solution containing 20% DMSO and Assay Buffer. The reaction mixture was extracted and analyzed as described above. The inhibition by compound was determined by comparing the control relative activity to the relative activity observed in wells containing the compound. Relative activity was determined by subtracting the relative intensity (area palmitoyl carnitine/area myristoyl carnitine) observed in the negative control from the relative intensity observed in the experimental well, and dividing by the relative activity observed in the positive control.
[formula] Compound characterization by dose response format was performed using the above described assay conditions and a 16 point compound titration in 2 fold compound dilution steps. The DMSO concentration was kept constant at 20% (v/v) for all compound concentrations.

IC50 | Compound
≤ 1 µM | C[N+](C)(C)C[C@@H](CC(=O)O)NC(=O)c1ccc(CCc2ccccc2)s1 [Example S45, (R)-3-(5-phenethylthiophene-2-carboxamido)-4-(trimethylammonio)-butanoate]
100 to 1000 µM | C[N+](C)(C)C[C@@H](CC(=O)[O-])NC(=O)c1cccc(C#Cc2ccccc2)c1 [Example S48, (R)-3-(3-(phenylethynyl)benzamido)-4-(trimethylammonio)butanoate]
100 to 1000 µM | C[N+](C)(C)C[C@@H](CC(=O)[O-])NC(=O)c1ccc(Oc2ccccc2)nc1 [Example S50, (R)-3-(6-phenoxynicotinamido)-4-(trimethylammonio)butanoate]
1000 to 2500 µM | C[N+](C)(C)C[C@@H](CC(=O)[O-])NC(=O)c1ccc(OCC(F)(F)F)nc1 [Example S52, (R)-3-(6-(2,2,2-trifluoroethoxy)nicotinamido)-4-(trimethylammonio)butanoate]
> 2500 µM | CC(=O)Nc1ccc(C(=O)N[C@H](CC(=O)[O-])C[N+](C)(C)C)cc1 [Example S53, (R)-3-(4-acetamidobenzamido)-4-(trimethylammonio)butanoate]
1 to 10 µM | C[N+](C)(C)C[C@@H](CC(=O)[O-])NC(=O)c1ccc(CSCc2ccccc2)o1 [Example S56, (R)-3-(5-(benzylthiomethyl)furan-2-carboxamido)-4-(trimethylammonio)-butanoate]
1 to 10 µM | C[N+](C)(C)C[C@@H](CC(=O)[O-])NC(=O)c1ccc(COc2cccc3ccccc23)o1 [Example S58, (R)-3-(5-((naphthalen-1-yloxy)methyl)furan-2-carboxamido)-4-(trimethyl-ammonio)butanoate]
10 to 100 µM | C[N+](C)(C)C[C@@H](CC(=O)[O-])NC(=O)c1ccc(CCc2ccccc2)cc1 [Example S64, (R)-3-(4-phenethylbenzamido)-4-(trimethylammonio)butanoate]
100 to 1000 µM | Cc1cc(COc2ccccc2)oc1C(=O)N[C@H](CC(=O)[O-])C[N+](C)(C)C [Example S65, (R)-3-(3-methyl-5-(phenoxymethyl)furan-2-carboxamido)-4-(trimethyl-ammonio)butanoate]
100 to 1000 µM | C[N+](C)(C)C[C@@H](CC(=O)[O-])NC(=O)C(F)(F)c1ccccc1 [Example S69, (R)-3-(2,2-difluoro-2-phenylacetamido)-4-(trimethylammonio)butanoate]

Further lines, the molecule ahead of its results:

Compound | IC50
C[N+](C)(C)C[C@@H](CC(=O)O)NC(=O)c1ccc(-c2cccs2)s1 [Example S44, (R)-3-(2,2′-bithiophene-5-carboxamido)-4-(trimethylammonio)butanoate] | 100 to 1000 µM
C[N+](C)(C)C[C@@H](CC(=O)O)NC(=O)c1cccc(CCc2ccccc2)c1 [Example S46, (R)-3-(3-phenethylbenzamido)-4-(trimethylammonio)butanoate] | 100 to 1000 µM
Cc1ncoc1C(=O)N[C@H](CC(=O)O)C[N+](C)(C)C [Example S49, (R)-3-carboxy-N,N,N-trimethyl-2-(4-methyloxazole-5-carboxamido)-propan-1-aminium trifluoroacetate] | 100 to 1000 µM
Cc1nc(-c2cnccn2)sc1C(=O)N[C@H](CC(=O)[O-])C[N+](C)(C)C [Example S51, (R)-3-(4-methyl-2-(pyrazin-2-yl)thiazole-5-carboxamido)-4-(trimethyl-ammonio)butanoate] | > 2500 µM
CCCn1cc(C(=O)N[C@H](CC(=O)[O-])C[N+](C)(C)C)c(C)n1 [Example S54, (R)-3-(3-methyl-1-propyl-1H-pyrazole-4-carboxamido)-4-(trimethyl-ammonio)butanoate] | 1000 to 2500 µM
CCCc1ccc(OCc2ccc(C(=O)N[C@H](CC(=O)[O-])C[N+](C)(C)C)o2)c(OC)c1 [Example S55, (R)-3-(5-((2-methoxy-4-propylphenoxy)methyl)furan-2-carboxamido)-4-(trimethylammonio)butanoate] | 10 to 100 µM
C[N+](C)(C)C[C@@H](CC(=O)O)NC(=O)c1cccc(-c2cc[nH]n2)c1 [Example S57, (R)-3-(3-(1H-pyrazol-3-yl)benzamido)-4-(trimethylammonio)butanoate trifluoroacetate] | > 2500 µM
C[N+](C)(C)C[C@@H](CC(=O)[O-])NC(=O)c1ccc(CN2CCOCC2)o1 [Example S59, (R)-3-(5-(morpholinomethyl)furan-2-carboxamido)-4-(trimethylammonio)-butanoate] | 1000 to 2500 µM
CC(C)(C)c1ccc(OCc2ccc(C(=O)N[C@H](CC(=O)[O-])C[N+](C)(C)C)o2)cc1 [Example S60, (R)-3-(5-((4-tert-butylphenoxy)methyl)furan-2-carboxamido)-4-(trimethyl-ammonio)butanoate] | 100 to 1000 µM
C[N+](C)(C)C[C@@H](CC(=O)O)NC(=O)c1ccc(CS(=O)(=O)Cc2ccccc2)o1 [Example S61, (R)-3-(5-(benzylsulfonylmethyl)furan-2-carboxamido)-4-(trimethyl-ammonio)butanoate 2,2,2-trifluoroacetate] | 100 to 1000 µM
C[N+](C)(C)C[C@@H](CC(=O)O)NC(=O)c1ccc(C#Cc2ccccc2)cc1 [Example S62, (R)-3-(4-(phenylethynyl)benzamido)-4-(trimethylammonio)butanoate 2,2,2-trifluoroacetate] | 10 to 100 µM
CCOc1ccc(OCc2ccc(C(=O)N[C@H](CC(=O)[O-])C[N+](C)(C)C)o2)cc1 [Example S68, (R)-3-(5-((4-ethoxyphenoxy)methyl)furan-2-carboxamido)-4-(trimethyl-ammonio)butanoate] | ≤ 1 µM
Cc1cccc(OCc2ccc(C(=O)N[C@H](CC(=O)[O-])C[N+](C)(C)C)o2)c1 [Example S70, (R)-3-(5-(m-tolyloxymethyl)furan-2-carboxamido)-4-(trimethylammonio)-butanoate] | 1 to 10 µM
C[N+](C)(C)C[C@@H](CC(=O)[O-])NC(=O)c1ccc(CSc2ccc(Cl)cc2)o1 [Example S71, (R)-3-(5-((4-chlorophenylthio)methyl)furan-2-carboxamido)-4-(trimethyl-ammonio)butanoate] | ≤ 1 µM
Cn1nc(C(F)(F)F)cc1-c1ccc(S(=O)(=O)N[C@H](CC(=O)O)C[N+](C)(C)C)s1 [Example S72, (R)-3-carboxy-N,N,N-trimethyl-2-(5-(1-methyl-3-(trifluoromethyl)-1H-pyrazol-5-yl)thiophene-2-sulfonamido)propan-1-aminium 2,2,2-trifluoroacetate] | 100 to 1000 µM
CCCCCCCCOC(=O)Nc1ccc(S(=O)(=O)N[C@H](CC(=O)O)C[N+](C)(C)C)cc1 [Example S73, (R)-3-carboxy-N,N,N-trimethyl-2-(4-(octyloxycarbonylamino)phenyl-sulfonamido)propan-1-aminium 2,2,2-trifluoroacetate] | 10 to 100 µM
